In ChEMBL document CHEMBL4808179 (Bioorg Med Chem Lett, 2021):
Converted amounts (≈) assume the structure as drawn.

Legend:
Staphylococcus aureus [1] = test: Antibacterial activity against methicillin-resistant Staphylococcus aureus USA300 assessed as bacterial growth inhibition; type: functional
Staphylococcus aureus [2] = test: Antibacterial activity against methicillin-resistant Staphylococcus aureus HS-663 assessed as bacterial growth inhibition; type: functional
Staphylococcus aureus [3] = test: Antibacterial activity against vancomycin-intermediate Staphylococcus aureus Mu50 assessed as bacterial growth inhibition; type: functional
Staphylococcus aureus [4] = test: Antibacterial activity against methicillin-susceptible Staphylococcus aureus Newman assessed as bacterial growth inhibition; type: functional
Escherichia coli = test: Antibacterial activity against Escherichia coli AB1157 assessed as bacterial growth inhibition; type: functional
Acinetobacter baumannii = test: Antibacterial activity against Acinetobacter baumannii assessed as bacterial growth inhibition; type: functional
Enterococcus faecium [5] = test: Antibacterial activity against vancomycin resistant Enterococcus faecium Van A HS-0649 assessed as inhibition of bacterial growth; type: functional
Enterococcus faecium [6] = test: Antibacterial activity against vancomycin resistant Enterococcus faecium Van A HS-06188 assessed as inhibition of bacterial growth; type: functional
Enterococcus faecium [7] = test: Antibacterial activity against vancomycin resistant Enterococcus faecium Van M HS-0847 assessed as inhibition of bacterial growth; type: functional
Enterococcus faecium [8] = test: Antibacterial activity against vancomycin resistant Enterococcus faecium Van M HS-08267 assessed as inhibition of bacterial growth; type: functional
Enterococcus faecium [9] = test: Antibacterial activity against vancomycin resistant Enterococcus faecium Van B V(R) assessed as inhibition of bacterial growth; type: functional
Enterococcus faecium [10] = test: Potency index, ratio of Vancomycin MIC to test compound MIC for antibacterial activity against vancomycin resistant Enterococcus faecium Van A HS-06188 assessed as inhibition of bacterial growth; type: functional
Enterococcus faecium [11] = test: Potency index, ratio of Vancomycin MIC to test compound MIC for antibacterial activity against vancomycin resistant Enterococcus faecium Van M HS-0847 assessed as inhibition of bacterial growth; type: functional
Enterococcus faecium [12] = test: Potency index, ratio of Vancomycin MIC to test compound MIC for antibacterial activity against vancomycin resistant Enterococcus faecium Van M HS-08267 assessed as inhibition of bacterial growth; type: functional
Enterococcus faecium [13] = test: Potency index, ratio of Vancomycin MIC to test compound MIC for antibacterial activity against vancomycin resistant Enterococcus faecium Van B V(R) assessed as inhibition of bacterial growth; type: functional
Staphylococcus aureus [14] = test: Potency index, ratio of Vancomycin MIC to test compound MIC for antibacterial activity against methicillin-susceptible Staphylococcus aureus Newman assessed as bacterial growth inhibition; type: functional
Staphylococcus aureus [15] = test: Potency index, ratio of Vancomycin MIC to test compound MIC for antibacterial activity against vancomycin-intermediate Staphylococcus aureus Mu50 assessed as bacterial growth inhibition; type: functional
L02 = test: Cytotoxicity against human L02 cells assessed as reduction in cell viability >= 12.5 uM; type: cell-based

| Compound | MIC (Staphylococcus aureus [1]) [µg/mL] | MIC (Staphylococcus aureus [2]) [µg/mL] | MIC (Staphylococcus aureus [3]) [µg/mL] | MIC (Staphylococcus aureus [4]) [µg/mL] | MIC (Escherichia coli) [µg/mL] | MIC (Acinetobacter baumannii) [µg/mL] | MIC (Enterococcus faecium [5]) [µg/mL] | MIC (Enterococcus faecium [6]) [µg/mL] | MIC (Enterococcus faecium [7]) [µg/mL] | MIC (Enterococcus faecium [8]) [µg/mL] | MIC (Enterococcus faecium [9]) [µg/mL] | Ratio (Enterococcus faecium [10]) | Ratio (Enterococcus faecium [11]) | Ratio (Enterococcus faecium [12]) | Ratio (Enterococcus faecium [13]) | Ratio (Staphylococcus aureus [14]) | Ratio (Staphylococcus aureus [15]) | Activity (L02) |
| --- | --- | --- | --- | --- | --- | --- | --- | --- | --- | --- | --- | --- | --- | --- | --- | --- | --- | --- |
| CN[C@H](CC(C)C)C(=O)N[C@H]1C(=O)N[C@@H](CC(N)=O)C(=O)N[C@H]2C(=O)N[C@H]3C(=O)N[C@H](C(=O)N[C@H](C(=O)N/N=C/c4ccc(-c5ccc(Cl)cc5)cc4)c4cc(O)cc(O)c4-c4cc3ccc4O)[C@H](O)c3ccc(c(Cl)c3)Oc3cc2cc(c3O[C@@H]2O[C@H](CO)[C@@H](O)[C@H](O)[C@H]2O[C@H]2C[C@](C)(N)[C@H](O)[C@H](C)O2)Oc2ccc(cc2Cl)[C@H]1O | 0.5 (≈ 0.301 µM) | 0.0625 (≈ 0.0376 µM) | 2 (≈ 1.2 µM) | 0.5 (≈ 0.301 µM) | 128 (≈ 77 µM) | > 128 | 4 (≈ 2.41 µM) | 16 (≈ 9.63 µM) | 4 (≈ 2.41 µM) | 4 (≈ 2.41 µM) | 8 (≈ 4.81 µM) | 8 | 8 | 8 | 8 | 4 | 2 | – |
| CN[C@H](CC(C)C)C(=O)N[C@H]1C(=O)N[C@@H](CC(N)=O)C(=O)N[C@H]2C(=O)N[C@H]3C(=O)N[C@H](C(=O)N[C@H](C(=O)O)c4cc(O)cc(O)c4-c4cc3ccc4O)[C@H](O)c3ccc(c(Cl)c3)Oc3cc2cc(c3O[C@@H]2O[C@H](CO)[C@@H](O)[C@H](O)[C@H]2O[C@H]2C[C@](C)(N)[C@H](O)[C@H](C)O2)Oc2ccc(cc2Cl)[C@H]1O [VANCOMYCIN] | – | 0.25 (≈ 0.173 µM) | 8 (≈ 5.52 µM) | – | – | – | – | – | 64 (≈ 44.2 µM) | – | – | – | – | – | – | – | – | – |
| CN[C@H](CC(C)C)C(=O)N[C@H]1C(=O)N[C@@H](CC(N)=O)C(=O)N[C@H]2C(=O)N[C@H]3C(=O)N[C@H](C(=O)N[C@H](C(=O)NNCc4ccc(-c5ccc(C(F)(F)F)cc5)cc4)c4cc(O)cc(O)c4-c4cc3ccc4O)[C@H](O)c3ccc(c(Cl)c3)Oc3cc2cc(c3O[C@@H]2O[C@H](CO)[C@@H](O)[C@H](O)[C@H]2O[C@H]2C[C@](C)(N)[C@H](O)[C@H](C)O2)Oc2ccc(cc2Cl)[C@H]1O | 0.5 (≈ 0.295 µM) | 0.0625 (≈ 0.0368 µM) | 2 (≈ 1.18 µM) | 1 (≈ 0.589 µM) | > 128 | 64 (≈ 37.7 µM) | 8 (≈ 4.71 µM) | 8 (≈ 4.71 µM) | 4 (≈ 2.36 µM) | 2 (≈ 1.18 µM) | 4 (≈ 2.36 µM) | 8 | 8 | 8 | 8 | – | – | – |
| CN[C@H](CC(C)C)C(=O)N[C@H]1C(=O)N[C@@H](CC(N)=O)C(=O)N[C@H]2C(=O)N[C@H]3C(=O)N[C@H](C(=O)N[C@H](C(=O)NNCc4ccccc4)c4cc(O)cc(O)c4-c4cc3ccc4O)[C@H](O)c3ccc(c(Cl)c3)Oc3cc2cc(c3O[C@@H]2O[C@H](CO)[C@@H](O)[C@H](O)[C@H]2O[C@H]2C[C@](C)(N)[C@H](O)[C@H](C)O2)Oc2ccc(cc2Cl)[C@H]1O | 1 (≈ 0.644 µM) | 0.25 (≈ 0.161 µM) | 4 (≈ 2.57 µM) | 1 (≈ 0.644 µM) | > 128 | > 128 | 128 (≈ 82.4 µM) | 64 (≈ 41.2 µM) | 64 (≈ 41.2 µM) | 32 (≈ 20.6 µM) | 128 (≈ 82.4 µM) | – | – | – | – | – | – | – |
| CN[C@H](CC(C)C)C(=O)N[C@H]1C(=O)N[C@@H](CC(N)=O)C(=O)N[C@H]2C(=O)N[C@H]3C(=O)N[C@H](C(=O)N[C@H](C(=O)N[C@@H](CCCNC(=N)N)C(N)=O)c4cc(O)cc(O)c4-c4cc3ccc4O)[C@H](O)c3ccc(c(Cl)c3)Oc3cc2cc(c3O[C@@H]2O[C@H](CO)[C@@H](O)[C@H](O)[C@H]2O[C@H]2C[C@](C)(N)[C@H](O)[C@H](C)O2)Oc2ccc(cc2Cl)[C@H]1O | – | 0.25 (≈ 0.156 µM) | 2 (≈ 1.25 µM) | 2 (≈ 1.25 µM) | 32 (≈ 19.9 µM) | > 128 | 64 (≈ 39.9 µM) | 64 (≈ 39.9 µM) | 64 (≈ 39.9 µM) | 64 (≈ 39.9 µM) | 64 (≈ 39.9 µM) | – | – | – | – | – | – | Toxic |
